Reference: patent US20020061836A1, “Methods for altering SXR activation using peptide mimetic HIV protease inhibitor SXR ligands” (priority 2000, published 2002)

Columns and labels:
human VDR = target: T1, human VDR (Homo sapiens, UniProt P11473); assay: Nuclear receptor specificity transfection assay; format: cell-based; settings: 10 μM paclitaxel
T1 construct: expressed in transfected cells; host or cells: CV-1

human LXRα = target: T2, human LXRα (Homo sapiens, UniProt Q13133); assay: Nuclear receptor specificity transfection assay; format: cell-based; settings: 10 μM paclitaxel
T2 construct: expressed in transfected cells; host or cells: CV-1
T2 sequence (Q13133 1-447): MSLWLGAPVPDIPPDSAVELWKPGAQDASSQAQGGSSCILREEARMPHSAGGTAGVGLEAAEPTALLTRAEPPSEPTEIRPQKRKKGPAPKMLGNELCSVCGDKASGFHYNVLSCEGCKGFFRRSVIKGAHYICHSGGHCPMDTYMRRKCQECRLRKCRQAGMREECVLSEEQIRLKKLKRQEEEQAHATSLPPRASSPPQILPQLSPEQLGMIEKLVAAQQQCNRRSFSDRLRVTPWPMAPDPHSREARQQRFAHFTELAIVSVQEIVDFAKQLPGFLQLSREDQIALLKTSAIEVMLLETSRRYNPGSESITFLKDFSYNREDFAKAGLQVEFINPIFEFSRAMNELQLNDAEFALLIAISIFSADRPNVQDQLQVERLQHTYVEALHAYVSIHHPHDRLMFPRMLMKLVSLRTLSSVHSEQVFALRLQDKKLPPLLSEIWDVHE

mouse PPARγ = target: T3, mouse PPARγ (Mus musculus, UniProt P37238); assay: Nuclear receptor specificity transfection assay; format: cell-based; settings: 10 μM paclitaxel
T3 construct: expressed in transfected cells; host or cells: CV-1

[1] = test system: LS180 human colon cancer cells; assay: [14C]-paclitaxel efflux from pretreated LS180 cells; format: cell-based; settings: LS180 cells induced 48 hours with 10 μM paclitaxel, 10 μM docetaxel or 100 nM LG268
Experimental: Taxane-induced drug efflux was measured using pretreated LS180 human colon cancer cells. The rate of drug efflux was measured. […] Individual data points are the means of triplicate determinations, error bars represent standard deviation and the lines are lines of regression. The slope of each line (rate of efflux) was compared to the slope obtained in the control (untreated) cells using an analysis of covariance. […] The entire experiment was performed three times with similar results. […] The cells were then incubated in media supplemented with 10 μM [^14C]-paclitaxel (4.9 μCi/umol, Moravek Biochemicals, Brea, Calif.) for 15 minutes. The uptake of ^14C-paclitaxel reached maximum levels at 10-12 minutes (data not shown). After 15 minutes, the cells were then rapidly centrifuged through silicone oil to remove all traces of extracellular radioactivity, resuspended in fresh media, and cell counts determined. At multiple time points over the next 10 minutes, triplicate aliquots of the cell suspension (approx. 1×10^5 cells/aliquot) were again centrifuged through silicon oil and the radioactivity in the cell pellet measured by quench-corrected liquid scintillation counting. The rate of [^14C]-paclitaxel efflux was determined as the slope of the [^14C]-paclitaxel versus time plots using all data. The slope for each inducer was compared to the slope obtained in the control (untreated) cells using an analysis of covariance.

mouse PPARα = target: T4, mouse PPARα (Mus musculus, UniProt P23204); assay: Nuclear receptor specificity transfection assay; format: cell-based; settings: 10 μM paclitaxel
T4 construct: expressed in transfected cells; host or cells: CV-1
T4 sequence (P23204 1-468): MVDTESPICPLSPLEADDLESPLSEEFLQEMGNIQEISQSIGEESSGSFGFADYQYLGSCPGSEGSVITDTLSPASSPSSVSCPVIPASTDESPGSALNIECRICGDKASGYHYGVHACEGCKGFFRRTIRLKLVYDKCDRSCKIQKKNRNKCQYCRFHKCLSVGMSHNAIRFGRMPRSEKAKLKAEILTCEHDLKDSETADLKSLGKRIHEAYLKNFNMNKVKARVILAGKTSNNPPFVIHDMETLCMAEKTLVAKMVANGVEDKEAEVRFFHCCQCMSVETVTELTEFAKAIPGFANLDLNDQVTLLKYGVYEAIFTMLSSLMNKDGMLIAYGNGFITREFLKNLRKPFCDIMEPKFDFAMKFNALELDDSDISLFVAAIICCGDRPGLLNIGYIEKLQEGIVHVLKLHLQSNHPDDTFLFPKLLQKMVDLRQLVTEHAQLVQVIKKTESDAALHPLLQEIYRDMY

human RARα = target: T5, human RARα (Homo sapiens, UniProt P10276); assay: Nuclear receptor specificity transfection assay; format: cell-based; settings: 10 μM paclitaxel
T5 construct: expressed in transfected cells; host or cells: CV-1

[2] = target: T6, human RXRα ligand binding domain (Homo sapiens, UniProt P19793); assay: Gal-L-RXR Gal4 reporter transient transfection assay in CV-1 cells; format: cell-based; settings: 10 μM paclitaxel
T6 construct: expressed in transfected cells; host or cells: CV-1
T6 sequence (P19793 203-462): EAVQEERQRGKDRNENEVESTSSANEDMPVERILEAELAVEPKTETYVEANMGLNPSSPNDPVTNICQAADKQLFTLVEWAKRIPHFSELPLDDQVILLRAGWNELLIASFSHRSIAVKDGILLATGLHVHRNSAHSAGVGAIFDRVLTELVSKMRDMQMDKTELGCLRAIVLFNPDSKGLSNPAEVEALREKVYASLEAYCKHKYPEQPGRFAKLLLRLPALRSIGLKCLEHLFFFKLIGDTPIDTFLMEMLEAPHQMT
Text: The Gal4 reporter activity was normalized to the internal β-galactosidase control and the data plotted as fold activation relative to untreated cells. All transfections contained the Gal4 reporter and a β-galactosidase expression vector as an internal control.

human ERα = human ERα (Homo sapiens, UniProt P03372); settings: 10 μM paclitaxel
CYP3A4 and CYP2C8 = settings: read-out: Km for degradation of paclitaxel by CYP3A4 and CYP2C8; cited from earlier work
FXR = target: T7, FXR (Homo sapiens, UniProt Q96RI1); assay: Nuclear receptor specificity transfection assay; format: cell-based; settings: 10 μM paclitaxel
T7 construct: expressed in transfected cells; host or cells: CV-1

[3] = test system: MDR1 protein (P-glycoprotein); assay: Western analysis with P-glycoprotein antibody of LS180 cells; format: cell-based, human; settings: 10 μM, 48 hours
Experimental: Western Blotting was performed according to the following methods. Human LS180 cells in log phase growth were treated for 48 hours with the compounds indicated in the pertinent Figures. The cells were harvested, washed with phosphate buffered saline (PBS) and homogenized using 12-15 strokes of a Wheaton teflon-glass homogenizer. Cell debris was removed by centrifugation at 1500×g for 10 minutes, and the resulting supernatant was sedimented at 150,000×g for one hour at 4° C. to pellet the membranes. The membrane pellets were resuspended in PBS containing 1 mM phenylmethylsulfonyl fluoride and protein concentrations were determined according to standard prior art methods. […] The membranes were blocked with 5% non-fat dry milk in PBS with 0.1% Tween-20 (PBS-T) before incubation with a 1:500 dilution of P-glycoprotein antibody (Ab-1, Oncogene Research Products, Boston, Mass.) in blocking buffer for six hours at room temperature. Following several washes with PBS-T, membranes were incubated with a 1:1000 dilution of horseradish peroxidase-conjugated secondary anti-rabbit IgG antibodies. (Santa Cruz Biotechnology, Santa Cruz, Calif.) in blocking buffer for one hour at room temperature.

mouse CARβ = target: T8, mouse CARβ (Mus musculus, UniProt O35627); assay: Nuclear receptor specificity transfection assay / LXRE×3-TK-luc reporter with CARβ in CV-1 cells; format: cell-based; settings: 10 μM paclitaxel
T8 sequence (O35627 1-358): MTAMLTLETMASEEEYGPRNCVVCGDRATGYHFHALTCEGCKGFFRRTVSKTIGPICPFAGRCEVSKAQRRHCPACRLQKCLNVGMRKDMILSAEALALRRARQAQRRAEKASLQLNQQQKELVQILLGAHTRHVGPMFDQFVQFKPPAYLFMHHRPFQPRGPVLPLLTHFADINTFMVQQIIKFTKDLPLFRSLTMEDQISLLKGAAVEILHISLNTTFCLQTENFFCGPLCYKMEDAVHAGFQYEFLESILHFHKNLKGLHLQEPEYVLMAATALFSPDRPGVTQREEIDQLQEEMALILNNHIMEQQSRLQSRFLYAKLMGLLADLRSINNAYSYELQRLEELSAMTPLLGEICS

[4] = test system: thyroid hormone receptor β (TRβ); settings: 10 μM paclitaxel

T3 sequence (P37238 whole entry): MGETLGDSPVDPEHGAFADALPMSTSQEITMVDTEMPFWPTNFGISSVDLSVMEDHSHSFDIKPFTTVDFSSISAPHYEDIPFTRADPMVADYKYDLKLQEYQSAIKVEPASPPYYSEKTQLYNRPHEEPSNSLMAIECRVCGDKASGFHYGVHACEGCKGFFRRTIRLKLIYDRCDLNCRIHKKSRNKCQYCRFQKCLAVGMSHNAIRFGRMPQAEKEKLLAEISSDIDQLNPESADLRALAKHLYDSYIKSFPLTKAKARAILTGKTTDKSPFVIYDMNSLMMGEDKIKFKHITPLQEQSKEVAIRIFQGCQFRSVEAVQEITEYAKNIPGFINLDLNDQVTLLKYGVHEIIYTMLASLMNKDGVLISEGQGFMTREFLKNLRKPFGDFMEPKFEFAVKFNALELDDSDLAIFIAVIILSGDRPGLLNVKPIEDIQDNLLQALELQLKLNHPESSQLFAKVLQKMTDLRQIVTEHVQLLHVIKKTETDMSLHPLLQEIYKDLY
T1 sequence (P11473 whole entry): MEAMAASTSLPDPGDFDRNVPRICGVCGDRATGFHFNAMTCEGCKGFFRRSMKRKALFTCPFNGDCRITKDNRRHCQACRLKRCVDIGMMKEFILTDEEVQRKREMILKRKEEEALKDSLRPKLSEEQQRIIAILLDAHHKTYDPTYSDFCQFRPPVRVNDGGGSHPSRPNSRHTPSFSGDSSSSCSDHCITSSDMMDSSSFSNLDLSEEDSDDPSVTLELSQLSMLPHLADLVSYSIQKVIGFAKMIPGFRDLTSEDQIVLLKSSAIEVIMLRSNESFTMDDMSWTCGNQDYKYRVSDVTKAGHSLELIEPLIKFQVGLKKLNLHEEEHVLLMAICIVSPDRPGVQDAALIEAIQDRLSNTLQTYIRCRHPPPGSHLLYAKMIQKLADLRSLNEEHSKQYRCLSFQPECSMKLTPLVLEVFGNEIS
human ERα, sequence (P03372 whole entry): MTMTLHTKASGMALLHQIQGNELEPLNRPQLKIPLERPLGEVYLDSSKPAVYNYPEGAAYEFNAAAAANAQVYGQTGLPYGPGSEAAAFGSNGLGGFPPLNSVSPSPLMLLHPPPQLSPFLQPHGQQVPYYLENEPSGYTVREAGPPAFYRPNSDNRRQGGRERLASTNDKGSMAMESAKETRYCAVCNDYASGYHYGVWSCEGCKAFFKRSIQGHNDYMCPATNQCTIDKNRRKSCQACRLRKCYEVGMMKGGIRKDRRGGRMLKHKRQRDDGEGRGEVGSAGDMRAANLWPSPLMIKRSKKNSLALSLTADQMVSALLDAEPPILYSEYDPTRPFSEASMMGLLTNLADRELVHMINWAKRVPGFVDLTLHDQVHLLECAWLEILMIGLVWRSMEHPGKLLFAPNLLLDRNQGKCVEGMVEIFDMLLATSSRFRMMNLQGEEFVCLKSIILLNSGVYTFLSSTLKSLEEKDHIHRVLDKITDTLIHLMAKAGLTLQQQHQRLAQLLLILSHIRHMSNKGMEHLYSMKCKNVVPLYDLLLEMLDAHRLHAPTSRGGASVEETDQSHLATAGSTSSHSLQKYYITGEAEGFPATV
T5 sequence (P10276 whole entry): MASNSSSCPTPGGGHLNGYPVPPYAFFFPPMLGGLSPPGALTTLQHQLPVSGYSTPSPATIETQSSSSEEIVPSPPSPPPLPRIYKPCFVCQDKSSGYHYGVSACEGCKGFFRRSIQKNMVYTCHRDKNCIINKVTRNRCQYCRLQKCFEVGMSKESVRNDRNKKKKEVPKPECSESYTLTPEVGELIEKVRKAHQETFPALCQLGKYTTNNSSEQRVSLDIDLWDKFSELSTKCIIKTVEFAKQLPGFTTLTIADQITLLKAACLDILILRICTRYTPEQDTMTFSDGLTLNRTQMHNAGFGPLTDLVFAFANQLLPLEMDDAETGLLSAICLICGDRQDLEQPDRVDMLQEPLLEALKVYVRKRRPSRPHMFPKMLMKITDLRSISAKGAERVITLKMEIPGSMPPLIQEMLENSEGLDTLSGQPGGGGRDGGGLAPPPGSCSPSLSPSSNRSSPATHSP
T7 sequence (Q96RI1 whole entry, species assumed): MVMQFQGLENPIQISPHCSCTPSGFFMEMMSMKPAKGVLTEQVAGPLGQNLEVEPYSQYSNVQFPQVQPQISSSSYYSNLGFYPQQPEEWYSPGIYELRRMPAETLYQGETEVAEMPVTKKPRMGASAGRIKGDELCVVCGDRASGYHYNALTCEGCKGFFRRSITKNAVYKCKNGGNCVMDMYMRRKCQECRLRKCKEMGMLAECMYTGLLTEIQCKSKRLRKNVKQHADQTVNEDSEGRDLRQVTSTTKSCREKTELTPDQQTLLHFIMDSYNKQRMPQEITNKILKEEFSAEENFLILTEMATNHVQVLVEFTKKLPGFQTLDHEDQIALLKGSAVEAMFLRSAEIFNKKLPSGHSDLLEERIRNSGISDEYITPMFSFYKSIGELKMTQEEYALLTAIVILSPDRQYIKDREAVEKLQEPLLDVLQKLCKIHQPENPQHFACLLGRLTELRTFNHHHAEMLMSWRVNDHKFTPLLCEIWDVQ

effect on VDR reporter activity (human VDR): no effect
effect on LXRα reporter activity (human LXRα): no effect
effect on PPARγ reporter activity (mouse PPARγ): no effect
effect on PPARα reporter activity (mouse PPARα): no effect
effect on RARα reporter activity (human RARα): no effect
effect on RXR reporter activity [2]: no effect
effect on ERα reporter activity (human ERα): no effect
effect on FXR reporter activity (FXR): no effect
effect on CARβ reporter activity (mouse CARβ): no effect
Compound: CC(=O)O[C@H]1C(=O)[C@@]2(C)[C@H]([C@H](OC(=O)c3ccccc3)[C@]3(O)C[C@H](OC(=O)[C@H](O)[C@@H](NC(=O)c4ccccc4)c4ccccc4)C(C)=C1C3(C)C)[C@]1(OC(C)=O)CO[C@@H]1C[C@@H]2O [paclitaxel]
rate of [14C]-paclitaxel efflux versus untreated cells [1]: significantly faster
Km (CYP3A4 and CYP2C8): ~10 µM
induction of MDR1 protein (P-glycoprotein) expression [3]: much more effective than docetaxel
effect on TRβ reporter activity [4]: no effect
